Patent US4657897A, “N^6 -substituted adenosines for treating pain” (Warner-Lambert Company, priority 1985, dated 1987)

Experiments:
[1] = Mouse Activity and Screen Test (MAST), inhibition of locomotion (LI); assay type: in vivo, mouse (Swiss-Webster, male); conditions: one hour data
Protocol: (§1) Treatments are administered intraperitoneally one hour prior to testing. […] Compounds are dissolved or suspended in 0.2% Methocel. Control animals are injected with Methocel.
Immediately following the screen test, the final phase of testing is initiated by placing each group of three mice in one actophotometer (Life Sciences, 22, 1067-1076, 1978). The actophotometer consists of a cylindrical chamber whose center is occupied by another cylinder which contains the illumination for six photocells located on the perimeter of the chamber. Six light-beam interruptions equal one count. Locomotor activity is recorded by computer at ten minute intervals for 60 minutes.
(§2) The compounds are identified in the Examples.

[2] = Mouse Activity and Screen Test (MAST), screen test failure (ST); assay type: in vivo, mouse (Swiss-Webster, male); conditions: Mus musculus, ip, 1 h, read-out: MAST ST LAD
Protocol: as §1, §2

rat heart = experiment: Coronary blood flow (PCS2A), isolated perfused rat heart; design: species or system rat (male); conditions: read-out: effect on heart rate (HR)
Protocol: Male rats (400-600 gms) are pretreated with Na heparin 2000 units and anesthetized with Na pentobarbital (50 mg/kg) administered intraperitoneally. Once anesthetized, the rat heart is rapidly excised, the ascending aorta fitted to the aortic perfusion cannula, and secured with a ligature. The coronary arteries are perfused initially at a rate of about 15 ml/min for two to three minutes, afterwhich they are perfused at constant pressure of 70 mm Hg and temperature of 37° C. The electrocardiogram (ECG) is recorded using two platinum electrodes positioned at the base and apex of the left ventricle. A second heart is excised, cannulated, and perfused by the same method outlined above. Both hearts are tested in parallel. The standard physiological salt solution (PSS) is a modified Krebs-Hanseleit bicarbonate buffer of the following composition in mM concentration: NaCl, 127; NaHCO3, 25; dextrose, 5.5; Na Pyruvate, 2.0; KCl, 4.7; MgSO4, 1.1; KH 2PO4, 1.2; CaCl2.2H2 O, 2.5; CaNa2 EDTA, 0.05.
A 30-minute stabilization period is observed before starting the test protocol.
The microprocessor control system is a servo mechanism which permits coronary perfusion pressure (CPP) and drug concentration to be maintained constant independent of changes in coronary flow. The level at which CPP and drug concentration are maintained can be changed by commands communicated through the microprocessor keyboard. Dose-response curves are carried out by perfusing concentrated drug solution (DC) at rates proportional to total coronary flow (CFT). Drug concentrations are increased by proportionate increases in the rate of DC infusion over CFT via the microprocessor keyboard. The proportional flow rates for DC:CFT is about 0.0002:1 at the low end and 0.02:1 at the high end of the dose-response curve. Dose-response curves encompassing at least two log doses are carried out by preparing two DCs with a concentration difference of 1:100. Following the first dose range of two log doses, the DC are switched, proportional pumping rate adjusted, and the dose-responsecurve continued for another two log doses. The standard dose-response curve is carried out in one-half log dose increments starting at a subthreshold dose and ending at a dose which produces near maximal response in activity. Standard reference compounds are tested over the range of 10^-9 to 10^-6 M.
Measurements are for heart rate (HR) and coronary flow (CF). Units are: HR, beats/minute (bpm) and CF, milliliters/minute (ml/min). HR is calculated from the ECG strip chart recording and CF is calculated by recording analog outputs from pumps 1 and 2. Outputs from pump #1=CFT and the output from pump #2=CF for heart B (CFB). CF for heart A (CFA) is calculated (CFT -CFB =CFA).

[3] = Antihypertensive evaluation (AHP3), aortic blood pressure and heart rate in conscious rats; assay type: in vivo, rat
Protocol: This test procedure is described in the following paragraphs.
The continuous monitoring of pulsatile blood pressure (BP) from unrestrained conscious rats surgically equipped witth polyethylene cannulas was accomplished by means of a computer assisted data capture scheme (CADCS). The basic elements of the methodology are the cannulation procedure and the CADCS.
Rats were anesthetized with Telazol (1:1 tiletamine HCl and zolazepam HCl); 20-40 mg/kg IM and the descending aorta exposed via a midline incision. Cannulas fabricated from polyethylene tubing were inserted into the aorta via an undersized puncture hole below the renal arteries. The puncture hole was made by a 23 G disposable needle with a section of the aorta clamped off above and below the puncture site. The cannulas, consisting of a PE100 (0.86 mm ID) body and a PE50 (0.58 mm ID) tip, were attached to a trocar, inserted through the psoas muscle, and passed subcutaneously along the midline of the back and externalized between the ears. The cannulas were anchored to the psoas muscle and between the scalulae (3-0 green braided suture). The midline incision was closed in two steps (muscle first, skin second) using continuous over-and over sutures (4-0 chronic). Each rat was then given penicillin 30,000 units subcutaneously (Penicillin G Procaine Sterile Suspension).
The rats were fitted with a harness-spring-swivel assembly designed to protect the cannula and to provide the rat relative freedom of movement. The harnesses were fabricated from nylon hook and loop tape cemented to a metal plate to which spring wires (18-8 stainless steel), were attached to brass swivels. Each polyethylene cannula was channeled through a spring and connected through a swivel to a pressure transducer (Model P23Gb; Statham Instruments; Hato Rey, Puerto Rico) and an infusion pump (Sage model 234-7; Orion Research, Cambridge, MA) by means of PE100 tubing. While on test, each rat received a continuous slow infusion of heparinized saline solution (approximately […] or 40 units of heparin per 24 hour period) to prevent clot formation. Additional "flushes" of the cannula with heparinized saline were carried out when the aortic pulse pressure (systolic minus diastolic) was less than 25 mm Hg.
The pulsatile blood pressure and heart rate of each of 32 rats was monitored every minute by means of two in-laboratory microcomputers communicating directly with a data concentrator computer. The data were first stored on the data concentrator disk and then transferred to a magnetic tape for analysis and report generation by the main research computer. The overall scheme involved modulating the primary signal from the pressure transducer, generating the primary data set of the one-minute values for systolic, diastolic, and mean blood pressures and heart rate by the in-lab microcomputer and the storage, analysis, and report generation by the main reserach computer.
The transducers were connected to analog signal conditioning modules. The modules provided a regulated excitation voltage for the transducers, amplification as required to interface the microprocessors and an active low pass filter to compensate for the pressure wave form distortion produced by the flexible, fluid filled, narrow cannula. The distortion was 22-26 Hz and this provided a reliable estimate of both systolic and diastolic blood pressure.
The microcomputers (one for each of two groups of 16 rats) were connected to the input components through the module interface units, an analog-to-digital converter for the pressure wave form signal and the digital inputs for the dose and event marker switches. The microcomputer controlled the sequential acquisition of data from the modular interface units through an internal synchronous time-of-day clock/time base generator. Utilizing the time base generator as a reference, the blood pressure values and the marker switch status for each of the 32 stations were sampled every ten msec. […]

SMILES: OC[C@H]1O[C@@H](n2cnc3c(NCC(c4ccccc4)c4ccccc4)ncnc32)[C@H](O)[C@@H]1O [Example 1, N^6-(2,2-Diphenylethyl)adenosine]
- Inhibition of mouse locomotor activity ([1]; 10 mg/kg intraperitoneal): 92%
- Inhibition of mouse locomotor activity ([1]; 30 mg/kg intraperitoneal): 93%
- Inhibition of mouse locomotor activity ([1]; 100 mg/kg intraperitoneal): 94%
- minimal effective dose [2]: > 100 mg/kg
- activation at 0.001 µM (rat heart): 1%
- activation at 0.003 µM (rat heart): 3%
- activation at 0.01 µM (rat heart): -1%
- activation at 0.1 µM (rat heart): -13%
- activation at 1 µM (rat heart): -47%
- change in MAP (decrease) ([3]; 1 mg/kg): 16%
- change in heart rate (HR increase) ([3]; 1 mg/kg): < 20%
- change in MAP (decrease) ([3]; 3 mg/kg): 20%
- change in heart rate (HR increase) ([3]; 3 mg/kg): < 20%
- change in MAP (decrease) ([3]; 10 mg/kg): 20%
- change in heart rate (HR increase) ([3]; 10 mg/kg): < 20%
- change in MAP (decrease) ([3]; 30 mg/kg): 35%
- change in heart rate (HR increase) ([3]; 30 mg/kg): < 20%
